Consider 11 compounds from publication PMC7015555, “Transthyretin-Binding Activity of Complex Mixtures Representing the Composition of Thyroid-Hormone Disrupting Contaminants in House Dust and Human Serum” (Environmental Health Perspectives, 2020).

Each structure is given as a SMILES string. Where two headings read alike, the source gives them in different places.

On the set-up of data set [1]: method as in Jahnke et al. 2004. The conditions noted are these: humans; ref Jahnke et al. 2004; cited from earlier work.
On the set-up of data set [2]: method as in Jahnke et al. 2004. The following applies: rodents; ref Jahnke et al. 2004; cited from earlier work.
In data set [3] the test system is TTR. The conditions noted are these: cited from earlier work; for IC50: read-out: IC50 (M), Radioactive Ligand Binding Assay data from the literature; for REP, Radioactive Ligand Binding Assay data from the literature: relative effect potency.
Data set [4] deals with T1, TTR (Homo sapiens, UniProt P02766). Briefly: FITC-T4 TTR competitive binding assay. The following applies: for REP (relative potency compared to T4): IC20 of T4 / IC20 of compound (Equation 14); for IC50: read-out: IC50; for T4EQ concentration (nmol/g dust): reported concentration of the compound in SRM2585 dust x REP.
Another data set deals with TBG. The conditions noted are these: ref Salvatore et al. 2016; read-out: Kd(TBG) for T4; cited from earlier work.
For data set [5], the target named is T1, TTR. Briefly: Saturation experiment for the FITC-T4-TTR complex. The data set is classed as binding. The conditions noted are these: 30 nM TTR, FITC-T4 0 to 1,000 nM, no inhibitor. How it is done:
Competitive TTR-binding assays were performed by incubating human TTR ( 30nM ) with 110nM of FITC- T4 in the presence of test compounds, reference compound T4 , or carrier solvent control (1% DMSO). For each incubation with TTR, a parallel incubation was performed without TTR to correct for background fluorescence of the unbound FITC- T4 . In the competitive binding experiments, these control incubations were also used to check for possible quenching of FITC- T4 fluorescence by the test compounds and for autofluorescence of the test compounds themselves, neither of which was observed. […]
The Kd value for the FITC-T4-TTR complex was determined in a saturation binding experiment with various concentrations of FITC-T4 (ranging from LT = 0 to LT = 1E-6 M) in the absence or the presence of a fixed concentration of TTR (PT = 3E-8 M).
Using the least-squares method, a non-linear regression fit was performed on the corrected fluorescence Fc as a function of LT, yielding parameter estimates p*(q-1)=0.644 (AFU/nM) and […]
S1.4 Derivation of Ki from the ICx determined in the bioassay
The inhibitor-specific ICx value determined in the bioassay is defined as the total inhibitor concentration [IT] at which the concentration of ligand-protein complex [PLx] is (100-x)% of the concentration of ligand-protein complex in the absence of inhibitor [PL0], i.e. […]

Setting [6] is: 20% inhibition of FITC-T4 binding to TTR, 30 nM TTR, 110 nM FITC-T4, 2 h at 4°C, pH 8.0.
Where [7] appears, read: individual compounds, 30 nM TTR, 110 nM FITC-T4, 2 h at 4°C, pH 8.0, — = 50% inhibition level not reached (footnote g).
The mark [8] stands for this setting: inhibitor-TTR dissociation constant converted from IC20 (Equation 4), 4°C, read-out: Ki.

A word on the IC20: it is the point of the concentration-response curve where the effect stands at 20%. In general, Kd refers to the free concentration of one partner at which half of the binding sites on the other are occupied at equilibrium, for simple one-to-one binding. In the case of `NC(Cc1cc(I)c(Oc2cc(I)c(O)c(I)c2)c(I)c1)C(=O)O` (stereo not shown) [Thyroxine ( T4 ), thyroxine], the T4 half-life time in data set [1] is 120 to 220 h; in data set [2], 12 to 24 h. Besides, the IC20 was about 30 nM in the data set with TTR [3] (ref Hamers et al. 2008, Weiss et al. 2009, read-out: IC20 in the radioligand binding assay) and 21 nM on TTR [4] (pH 8). For the same compound, on TBG, the dissociation constant Kd is 0.1 nM.
For `O=C1OC2(c3ccc(O)cc3Oc3cc(O)ccc32)c2ccc(NC(=S)NC(Cc3cc(I)c(Oc4cc(I)c(O)c(I)c4)c(I)c3)C(=O)O)cc21` (stereo not shown) [FITC- T4], the Kd on TTR [5] stood at 140 nM.
As a reminder, the IC50 is the concentration needed to halve the response being measured. The Ki is a dissociation constant, usually derived from enzyme kinetics or from competition with a known ligand. Take `Oc1cc(Br)cc(Br)c1Oc1ccc(Br)cc1Br` [6-OH-BDE-47, 6-OH-2,2ʹ,4,4ʹ-tetrabromodiphenyl ether]: the IC50 in the data set with TTR [3] (ref Weiss et al. 2015) is 1.5e-07 M; on TTR [4] (setting [7]), 98 nM. Besides, the “REP, Radioactive Ligand Binding Assay data from the literature” value (shortened to “REP … from the literature”) in the data set with TTR [3] (ref Weiss et al. 2015) was 0.39. The same compound showed an IC20 on TTR [4] (setting [6]) of 31 nM. Moreover, on TTR [4], the “REP (relative potency compared to T4)” value was determined as 0.68. Further, the Ki on TTR [4] (setting [8]) stood at 54 nM.
Turning to `CCCOC(=O)c1ccc(O)cc1` [Propylparaben, propyl 4-hydroxybenzoate], in the data set with TTR [3] (ref Zhang et al. 2015), the IC50 is 1.9e-05 M and the “REP … from the literature” value is given as 0.0038. In addition, at TTR [4], the “REP (relative potency compared to T4)” value was 0.0039 and the IC50 came out at 19000 nM. In addition, the Ki on TTR [4] (setting [8]) worked out at 12000 nM. This compound also came in with an IC20 at TTR [4] (pH 8) of 5500 nM.
Take `O=S(=O)(O)C(F)(F)C(F)(F)C(F)(F)C(F)(F)C(F)(F)C(F)(F)C(F)(F)C(F)(F)F` [PFOS, perfluorooctane sulfonic acid]: in the data set with TTR [3] (ref Weiss et al. 2015), the half-maximal inhibitory concentration (IC50) was 9.4e-07 M and the “REP … from the literature” value is 0.065. Besides, on TTR [4] (setting [6]), the IC20 worked out at 82 nM. Further, at TTR [4], the “REP (relative potency compared to T4)” value is 0.26 and the “T4EQ concentration (nmol/g dust)” value is on record as 1.201 nmol/g dust. Besides, the IC50 at TTR [4] (setting [7]) worked out at 250 nM. At TTR [4] (read-out: Ki), the Ki was determined as 160 nM.
Take `O=C(O)C(F)(F)C(F)(F)C(F)(F)C(F)(F)C(F)(F)F` [PFHxA, perfluorohexanoic acid]: in the data set on TTR [3] (ref Weiss et al. 2015), the IC50 is 8.22e-06 M. In addition, on TTR [4] (setting [6]), the 20% effect concentration (IC20) was 1600 nM. Also, at TTR [4], the “REP (relative potency compared to T4)” value was 0.014 and the “T4EQ concentration (nmol/g dust)” value came out at 0.011 nmol/g dust. Besides, the IC50 on TTR [4] (setting [7]) came to 5600 nM. The Ki on TTR [4] (read-out: Ki) is 3400 nM.
On to `Oc1cc(Oc2ccc(Br)cc2Br)c(Br)cc1Br` [5-OH-BDE-47, 5-OH-2,2ʹ,4,4ʹ-tetrabromodiphenyl ether], for which, in the data set on TTR [3] (ref Weiss et al. 2015), the IC50 was 2.5e-08 M and the “REP … from the literature” value was 3. Besides, the IC20 at TTR [4] (setting [6]) was 14 nM. Also, the “REP (relative potency compared to T4)” value at TTR [4] worked out at 1.5. Besides, the 50% inhibitory concentration (IC50) at TTR [4] (setting [7]) came to 27 nM. In addition, the Ki on TTR [4] (setting [8]) was found to be 16 nM.
As for `CC(C)(c1cc(Br)c(O)c(Br)c1)c1cc(Br)c(O)c(Br)c1` [TBBPA, tetrabromo-bisphenol-A], in the data set with TTR [3] (ref Weiss et al. 2015), the IC50 is 3.1e-08 M and the “REP … from the literature” value is listed as 1.6. The compound also gave an IC20 on TTR [4] (setting [6]) of 14 nM. In addition, at TTR [4], the “REP (relative potency compared to T4)” value was 1.5 and the “T4EQ concentration (nmol/g dust)” value was 0.586 nmol/g dust. Further, the IC50 on TTR [4] (setting [7]) is 34 nM. Besides, the Ki on TTR [4] (read-out: Ki) was found to be 17 nM.
Regarding `O=S(=O)(O)C(F)(F)C(F)(F)C(F)(F)C(F)(F)F` [PFBS, perfluorobutane sulfonic acid], in the data set with TTR [3] (ref Weiss et al. 2015), the IC50 was 1.95e-05 M and the “REP … from the literature” value is 0.003. This compound also registered an IC20 at TTR [4] (setting [6]) of 2300 nM. Moreover, on TTR [4], the “REP (relative potency compared to T4)” value was 0.0091 and the “T4EQ concentration (nmol/g dust)” value came out at 0.002 nmol/g dust. The half-inhibitory concentration (IC50) on TTR [4] (setting [7]) is 9700 nM. For the same compound, the Ki at TTR [4] (setting [8]) amounted to 5100 nM.
In the case of `Oc1c(Cl)cc(-c2ccc(Cl)c(Cl)c2)c(Cl)c1Cl` [4-OH-CB-107, 4-OH-2,3,3ʹ,4ʹ,5-pentachlorobiphenyl], the IC50 in the data set with TTR [3] (ref Weiss et al. 2015) is 2.26e-08 M; at TTR [4] (setting [7]), 68 nM. Moreover, the “REP … from the literature” value with TTR [3] (ref Weiss et al. 2015) is reported as 3.5. The IC20 on TTR [4] (setting [6]) is 34 nM. Besides, the “REP (relative potency compared to T4)” value at TTR [4] is given as 0.63. Moreover, the Ki on TTR [4] (setting [8]) was 59 nM.
For `O=S(=O)(O)C(F)(F)C(F)(F)C(F)(F)C(F)(F)C(F)(F)C(F)(F)F` [PFHxS, perfluorohexane sulfonic acid], in the data set on TTR [3] (ref Weiss et al. 2015), the IC50 is 7.17e-07 M and the “REP … from the literature” value was 0.085. On TTR [4], affinity was put at a Ki of 280 nM, the “REP (relative potency compared to T4)” value was determined as 0.16, the IC50 was 460 nM and the “T4EQ concentration (nmol/g dust)” value came to 0.561 nmol/g dust. The compound further had an IC20 on TTR [4] (pH 8) of 140 nM.
